In the NIST ThermoML archive (doi:10.1016/j.fluid.2012.11.018) one finds refractive index and mass density data, which are given here for three compounds.

± gives the expanded uncertainty stated by the source.

A short description of series [1]: refractive index (Na D-line) (dimensionless). Conditions: 298.2 K; 101.33 kPa; Liquid; Standard Abbe refractometry.
For series [2] the following is noted: 298.2 K; 101.33 kPa; Liquid; Vibrating tube method.

Usually refractive index stands for the speed of light in vacuum divided by its phase velocity in the sample. As usually defined, the mass density is mass per unit of volume. For the compound `ClC(Cl)Cl` [trichloromethane], in series [1], the refractive index came to 1.4456 ± 0.0004. For the same compound, in series [2], the mass density came to 1480.34 ± 0.34 kg/m3.

On to `CC1CN1` (stereo not given) [2-methylaziridine], for which the refractive index in series [1] was 1.4116 ± 0.0006. In addition, the mass density in series [2] was found to be 802.23 ± 0.8 kg/m3.

On to `O` [water], for which the refractive index in series [1] was found to be 1.333 ± 0.0004.
